US9296704B2, “Substituted pyrimidines as protein kinase inhibitors” (CELGENE AVILOMICS RESEARCH, INC., priority 2007, dated 2016)

Assays:
Assay type in all cases: biochemical
BMX = target: T1, BMX (Homo sapiens, UniProt P51813); assay: Omnia assay for potency against BMX; conditions: read-out: BMX inhibition
T1 sequence (P51813 1-675): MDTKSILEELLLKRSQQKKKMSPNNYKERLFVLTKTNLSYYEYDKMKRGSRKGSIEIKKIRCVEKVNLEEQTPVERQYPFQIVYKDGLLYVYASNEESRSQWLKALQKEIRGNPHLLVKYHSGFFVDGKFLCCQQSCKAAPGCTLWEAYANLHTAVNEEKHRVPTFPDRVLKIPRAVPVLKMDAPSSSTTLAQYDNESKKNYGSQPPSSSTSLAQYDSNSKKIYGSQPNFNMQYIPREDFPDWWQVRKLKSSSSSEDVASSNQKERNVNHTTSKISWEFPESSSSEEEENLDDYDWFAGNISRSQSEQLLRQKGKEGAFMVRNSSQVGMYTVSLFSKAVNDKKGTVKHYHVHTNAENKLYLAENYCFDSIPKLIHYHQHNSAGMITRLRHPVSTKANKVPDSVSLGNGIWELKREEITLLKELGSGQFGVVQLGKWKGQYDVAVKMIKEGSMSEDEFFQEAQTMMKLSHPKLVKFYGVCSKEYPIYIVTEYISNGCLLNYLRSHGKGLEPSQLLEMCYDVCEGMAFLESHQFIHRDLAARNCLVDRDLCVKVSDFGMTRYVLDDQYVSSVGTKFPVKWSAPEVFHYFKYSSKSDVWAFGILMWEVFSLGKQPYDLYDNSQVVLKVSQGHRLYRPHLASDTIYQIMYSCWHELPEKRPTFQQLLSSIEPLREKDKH

ITK = target: T2, ITK (Homo sapiens, UniProt Q08881); assay: Omnia assay for potency against ITK; conditions: read-out: ITK inhibition
T2 sequence (Q08881 1-620): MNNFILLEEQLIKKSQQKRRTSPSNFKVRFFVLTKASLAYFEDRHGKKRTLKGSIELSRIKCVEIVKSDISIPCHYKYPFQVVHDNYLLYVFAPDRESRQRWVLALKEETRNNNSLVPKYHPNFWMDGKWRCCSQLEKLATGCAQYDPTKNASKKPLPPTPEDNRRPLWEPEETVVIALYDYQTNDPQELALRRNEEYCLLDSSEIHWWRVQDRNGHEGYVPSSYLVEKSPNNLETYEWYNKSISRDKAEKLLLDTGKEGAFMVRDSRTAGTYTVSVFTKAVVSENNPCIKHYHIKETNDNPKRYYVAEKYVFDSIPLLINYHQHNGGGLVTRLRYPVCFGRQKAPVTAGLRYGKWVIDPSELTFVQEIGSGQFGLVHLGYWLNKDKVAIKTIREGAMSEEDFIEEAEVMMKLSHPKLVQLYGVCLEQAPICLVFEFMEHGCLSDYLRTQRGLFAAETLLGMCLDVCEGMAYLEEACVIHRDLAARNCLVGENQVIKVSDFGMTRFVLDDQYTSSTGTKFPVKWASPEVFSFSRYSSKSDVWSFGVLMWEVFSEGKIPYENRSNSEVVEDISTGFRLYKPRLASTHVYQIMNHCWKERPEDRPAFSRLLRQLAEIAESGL
From the text: The protocol below describes continuous-read kinase assays to measure inherent potency of compounds against active forms of EGFR (WT) and EGFR (T790M/L858R) enzymes. The mechanics of the assay platform are best described by the vendor (Invitrogen, Carlsbad, Calif.) on their website at the following URL: http://www.invitrogen.com/content.cfm?pageid=11338 or http://www.invitrogen.com/site/us/en/home/Products-and-Services/Applications/Drug-Discovery/Target-and-Lead-Identification-and-Validation/KinaseBiology/KB-Misc/Biochemical-Assays/Omnia-Kinase-Assays.html.
Briefly, 10× stocks of EGFR-WT (PV3872) from Invitrogen and EGFR-T790M/L858R (40350) from BPS Bioscience, San Diego, Calif., 1.13×ATP (AS001A) and appropriate Tyr-Sox conjugated peptide substrates (KCZI001) were prepared in 1× kinase reaction buffer consisting of 20 mM Tris, pH 7.5, 5 mM MgCl2, 1 mM EGTA, 5 mM β-glycerophosphate, 5% glycerol (10× stock, KB002A) and 0.2 mM DTT (DS001A). 5 μL of each enzyme were pre-incubated in a Corning (#3574) 384-well, white, non-binding surface microtiter plate (Corning, NY) for 30 min. at 27° C. with a 0.5 μL volume of 50% DMSO and serially diluted compounds prepared in 50% DMSO. Kinase reactions were started with the addition of 45 μL of the ATP/Tyr-Sox peptide substrate mix and monitored every 30-90 seconds for 60 minutes at λex360/λem485 in a Synergy^4 plate reader from BioTek (Winooski, Vt.). At the conclusion of each assay, progress curves from each well were examined for linear reaction kinetics and fit statistics (R^2, 95% confidence interval, absolute sum of squares). Initial velocity (0 minutes to ˜30 minutes) from each reaction was determined from the slope of a plot of relative fluorescence units vs time (minutes) and then plotted against inhibitor concentration to estimate IC50 from log [Inhibitor] vs Response, Variable Slope model in GraphPad Prism from GraphPad Software (San Diego, Calif.).
This example describes continuous-read kinase assays to measure inherent potency of compound against active forms of ITK enzymes as described in Example 10 above except that the modified ITK-optimized reagent conditions are: • [ITK]=10 nM, [ATP]=25 μM, [Y6-Sox]=10 μM (ATP KMapp=33 μM).

EGFR (T790M/L858R) = target: T3, EGFR (T790M/L858R) (Homo sapiens, UniProt P00533, L858R/T790M); assay: Omnia continuous-read kinase assay, EGFR (T790M/L858R); conditions: read-out: EGFR (T790M/L858R) inhibiton
T3 construct: purchased BPS Bioscience 40350
In short: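 Enzyme pre-incubated 30 min at 27 °C with compound, then ATP/Y12-Sox peptide added; fluorescence (ex360/em485) read continuously 60 min in 20 mM Tris pH 7.5, 5 mM MgCl2, 0.2 mM DTT. WT: 5 nM enzyme, […]; T790M/L858R: 3 nM enzyme, […]. IC50 from initial velocities, variable-slope fit.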

T3 sequence (P00533 25-1210 T790M/L858R): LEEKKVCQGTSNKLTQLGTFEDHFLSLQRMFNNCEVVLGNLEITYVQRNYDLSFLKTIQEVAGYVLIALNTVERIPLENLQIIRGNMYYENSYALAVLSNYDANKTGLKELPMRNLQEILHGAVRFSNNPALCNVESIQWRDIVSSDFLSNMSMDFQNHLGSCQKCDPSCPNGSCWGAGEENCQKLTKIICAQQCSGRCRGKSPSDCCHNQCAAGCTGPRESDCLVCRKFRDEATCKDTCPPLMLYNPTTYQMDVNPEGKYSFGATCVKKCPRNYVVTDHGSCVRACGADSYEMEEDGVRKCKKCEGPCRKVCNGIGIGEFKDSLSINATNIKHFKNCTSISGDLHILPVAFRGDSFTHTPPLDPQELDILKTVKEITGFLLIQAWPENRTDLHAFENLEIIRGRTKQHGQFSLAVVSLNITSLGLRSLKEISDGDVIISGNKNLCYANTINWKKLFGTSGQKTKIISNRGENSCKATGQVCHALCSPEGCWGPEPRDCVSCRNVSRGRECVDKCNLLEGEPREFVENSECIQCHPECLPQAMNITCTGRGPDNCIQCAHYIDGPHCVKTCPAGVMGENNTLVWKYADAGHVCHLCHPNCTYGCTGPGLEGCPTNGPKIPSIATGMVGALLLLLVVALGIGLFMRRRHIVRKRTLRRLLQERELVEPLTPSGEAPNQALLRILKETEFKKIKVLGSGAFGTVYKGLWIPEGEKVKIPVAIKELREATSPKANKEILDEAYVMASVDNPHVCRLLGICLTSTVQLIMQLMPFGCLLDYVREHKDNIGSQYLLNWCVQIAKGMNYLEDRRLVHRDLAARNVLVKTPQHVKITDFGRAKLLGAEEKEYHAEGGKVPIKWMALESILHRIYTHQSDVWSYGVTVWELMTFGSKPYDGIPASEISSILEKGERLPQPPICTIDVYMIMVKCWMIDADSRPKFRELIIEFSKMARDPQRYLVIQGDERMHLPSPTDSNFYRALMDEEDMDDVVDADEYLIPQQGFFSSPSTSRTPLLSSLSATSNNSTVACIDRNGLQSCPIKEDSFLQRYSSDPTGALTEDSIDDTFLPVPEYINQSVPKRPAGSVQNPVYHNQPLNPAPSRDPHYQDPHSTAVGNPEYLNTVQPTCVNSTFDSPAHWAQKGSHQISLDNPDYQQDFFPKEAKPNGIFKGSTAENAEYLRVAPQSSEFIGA

Row | SMILES | IC50 (BMX) [nM] | IC50 (ITK) [nM] | IC50 (EGFR (T790M/L858R)) [nM]
1 | C=CC(=O)Nc1cccc(Nc2cc(Oc3ccc(Oc4ccccc4)cc3)ncn2)n1 [I-66] | ≤ 10 | 1000 to 10000 | 100 to 1000
2 | C=CC(=O)Nc1cccc(Nc2cc(Oc3cccc(C)c3)ncn2)n1 [I-65] | ≤ 10 | 10 to 100 | 10 to 100
3 | C=CC(=O)N(C)c1cccc(Nc2cc(Nc3ccc(Oc4ccccc4)cc3)ncn2)n1 [I-78, N-methyl-N-(6-(6-(4-phenoxyphenylamino)pyrimidin-4-ylamino)pyridin-2-yl)acrylamide] | 10 to 100 | 10 to 100 | 
4 | C=CC(=O)Nc1cccc(Nc2cc(Nc3ccc(Oc4ccccc4)cc3)ncn2)n1 [I-63] | ≤ 10 | 1000 to 10000 | ≤ 10
5 | CN(C)C/C=C/C(=O)N(C)c1cccc(Nc2cc(Nc3ccc(Oc4ccccc4)cc3)ncn2)n1 [I-79, (E)-4-(dimethylamino)-N-methyl-N-(6-(6-(4-phenoxyphenylamino)pyrimidin-4-ylamino)pyridine-2-yl)but-2-enamide] | ≤ 10 | ≤ 10 | 
6 | CN(C)C/C=C/C(=O)Nc1cccc(Nc2cc(Nc3ccc(Oc4ccccc4)cc3)ncn2)n1 [I-64, (E)-4-(dimethylamino)-N-(6-(6-(4-phenoxyphenylamino)pyrimidin-4-ylamino)pyridine-2-yl)but-2-enamide] | 10 to 100 | 10 to 100 | 
7 | C=CC(=O)Nc1cccc(Nc2cc(Nc3cccc(Br)c3)ncn2)c1 [I-1, N-{3-[6-(3-bromophenylamino)-pyrimidin-4-ylamino]-phenyl}-2-propenamide] |  |  | ≤ 10
8 | C=CC(=O)Nc1cccc(Nc2cc(Nc3ccc(Oc4ccccc4)cc3)ncn2)c1 [I-13, N-{3-[6-(4-phenoxyphenylamino)-pyrimidin-4-ylamino]phenyl}-2 propenamide] | ≤ 10 | 1000 to 10000 | 10 to 100
9 | Cc1cccc(Oc2cc(Nc3cccc(NC(=O)/C=C/CN(C)C)n3)ncn2)c1 [I-81] | ≤ 10 | 10 to 100 | 
10 | C=CC(=O)Nc1cccc(Nc2cc(Nc3ccccc3)ncn2)n1 [I-94] | ≤ 10 | 10 to 100 | ≤ 10
